Experimental data reported in PubChem BioAssay AID330 (DTP/NCI, 2004).
Toxic doses and inconclusive results are not listed.

Tested on: P388 leukemia ip, CD2F1 mice, survival T/C
Assay: NCI In Vivo Anticancer Drug Screen. Data for tumor model P388 Leukemia (intraperitoneal) in CD2F1 (CDF1) mice
Conditions: endpoint: median survival time, higher = longer survival
In short: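 Mice carrying the transplanted tumor received test compound or vehicle. Survival was recorded in each group, and the value is the treated-group measurement divided by that of the vehicle-treated control group.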

[1] = dose: 50.0 mg/kg/injection, schedule: Q01DX005 (ip), vehicle: saline with Tween-80
[2] = dose: 100.0 mg/kg/injection, schedule: Q01DX005 (ip), vehicle: saline with Tween-80
[3] = dose: 50.0 mg/kg/injection, schedule: Q01DX009 (ip), vehicle: Klucel (hydroxypropylcellulose) (HPC)
[4] = dose: 100.0 mg/kg/injection, schedule: Q01DX001 (ip), vehicle: Klucel (hydroxypropylcellulose) (HPC)
[5] = dose: 200.0 mg/kg/injection, schedule: Q01DX001 (ip), vehicle: Klucel (hydroxypropylcellulose) (HPC)
[6] = dose: 400.0 mg/kg/injection, schedule: Q01DX001 (ip), vehicle: Klucel (hydroxypropylcellulose) (HPC)

COc1cccc2ccc(-c3ccccc3)[s+]c12
T/C (dose: 60.0 mg/kg/injection, schedule: Q01DX005 (ip), vehicle: Klucel (hydroxypropylcellulose) (HPC)): 97 % of control
T/C (dose: 120.0 mg/kg/injection, schedule: Q01DX005 (ip), vehicle: Klucel (hydroxypropylcellulose) (HPC)): 98 % of control
T/C (dose: 240.0 mg/kg/injection, schedule: Q01DX005 (ip), vehicle: Klucel (hydroxypropylcellulose) (HPC)): 104 % of control

CC(C)(C)N1COC2CCCC21 (centres undefined)
T/C (dose: 12.5 mg/kg/injection, schedule: Q01DX005 (ip), vehicle: saline): 108 % of control
T/C (dose: 25.0 mg/kg/injection, schedule: Q01DX005 (ip), vehicle: saline): 100 % of control

C1=Nc2ccccc2OCCOc2ccccc2N=Cc2ccccc2NCCNc2ccccc21
T/C (dose: 100.0 mg/kg/injection, schedule: Q04DX003 (ip), vehicle: saline): 97 % of control
T/C (dose: 200.0 mg/kg/injection, schedule: Q04DX003 (ip), vehicle: saline): 100 % of control

CN(Cc1cccc2ccccc12)Cc1cccc2ccccc12
T/C [1]: 86 % of control
T/C [2]: 89 % of control

CCOC(=O)c1nn(C)c(=O)[nH]c1=O
T/C [1]: 99 % of control
T/C [2]: 100 % of control
T/C (dose: 200.0 mg/kg/injection, schedule: Q01DX005 (ip), vehicle: saline with Tween-80): 100 % of control

C=CC(C)(O)/C=C/C=C(\C)C(CC1OC1(C)C)OC(=O)/C(C)=C\C (centres undefined)
T/C [3]: 95 % of control
T/C (dose: 100.0 mg/kg/injection, schedule: Q01DX009 (ip), vehicle: Klucel (hydroxypropylcellulose) (HPC)): 107 % of control

NC(Cc1ccc(O)c(N=Nc2ccc([N+](=O)[O-])cc2)c1)C(=O)O (centres undefined)
T/C (dose: 100.0 mg/kg/injection, schedule: Q01DX001 (ip), vehicle: saline): 103 % of control
T/C (dose: 200.0 mg/kg/injection, schedule: Q01DX001 (ip), vehicle: saline): 100 % of control
T/C (dose: 400.0 mg/kg/injection, schedule: Q01DX001 (ip), vehicle: saline): 100 % of control

COC1=C(OC)C(=O)C(OC)=C(OC)C1=O
T/C (dose: 12.5 mg/kg/injection, schedule: Q01DX009 (ip), vehicle: saline with Tween-80): 106 % of control
T/C (dose: 25.0 mg/kg/injection, schedule: Q01DX009 (ip), vehicle: saline with Tween-80): 98 % of control
T/C (dose: 50.0 mg/kg/injection, schedule: Q01DX009 (ip), vehicle: saline with Tween-80): 104 % of control

O=C(OC(=O)c1cccc(-c2ccccc2)c1)c1cccc(-c2ccccc2)c1
T/C (dose: 100.0 mg/kg/injection, schedule: Q04DX003 (ip), vehicle: Klucel (hydroxypropylcellulose) (HPC)): 104 % of control
T/C (dose: 200.0 mg/kg/injection, schedule: Q04DX003 (ip), vehicle: Klucel (hydroxypropylcellulose) (HPC)): 90 % of control
T/C (dose: 400.0 mg/kg/injection, schedule: Q04DX003 (ip), vehicle: Klucel (hydroxypropylcellulose) (HPC)): 90 % of control

CC(C)SC(=S)Nc1ccc(F)cc1
T/C (dose: 50.0 mg/kg/injection, schedule: Q01DX009 (ip), vehicle: suspension in saline): 101 % of control
T/C (dose: 100.0 mg/kg/injection, schedule: Q01DX009 (ip), vehicle: suspension in saline): 101 % of control
T/C (dose: 200.0 mg/kg/injection, schedule: Q01DX009 (ip), vehicle: suspension in saline): 107 % of control

Cc1ccc(SC(F)(F)C(F)C(F)(F)F)cc1 (centres undefined)
T/C (dose: 50.0 mg/kg/injection, schedule: Q01DX005 (ip), vehicle: saline): 98 % of control
T/C (dose: 100.0 mg/kg/injection, schedule: Q01DX005 (ip), vehicle: saline): 101 % of control
T/C (dose: 200.0 mg/kg/injection, schedule: Q01DX005 (ip), vehicle: saline): 100 % of control

CN(C)CC(O)c1ccc2ccc3ccccc3c2c1 (centres undefined)
T/C [4]: 102 % of control
T/C [5]: 101 % of control
T/C [6]: 101 % of control

Fc1ccc(CSC(=S)Nc2ccc(F)c(F)c2)cc1
T/C [3]: 111 % of control
T/C (dose: 50.0 mg/kg/injection, schedule: Q01DX009 (ip), vehicle: saline): 87 % of control
T/C (dose: 100.0 mg/kg/injection, schedule: Q01DX009 (ip), vehicle: saline): 107 % of control
T/C (dose: 200.0 mg/kg/injection, schedule: Q01DX009 (ip), vehicle: saline): 108 % of control

CC(C)(C)C1NC(C(C)(C)C)N2C(C(C)(C)C)N12 (centres undefined)
T/C [4]: 100 % of control
T/C [5]: 90 % of control
T/C [6]: 102 % of control
